According to ChEMBL document CHEMBL1201861, “Genomics of Drug Sensitity in Cancer screening data, Wellcome Trust Sanger Institute”:

What follows are molecules tested on NCI-H1355 (assay: cells). Conditions: Homo sapiens, NCI-H1355.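 Note: growth inhibition of human NCI-H1355 cells, read out by a cell viability assay.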
Assay type: functional, cell-based, Homo sapiens
Description: SANGER: Inhibition of human NCI-H1355 cell growth in a cell viability assay.
With `CC(C)CCN1c2nc(Nc3cc(F)c(O)c(F)c3)ncc2N(C)C(=O)C1C` (centres undefined) the IC50 was greater than 5 µM.

These molecules were tested on ES3 (assay: cells). Conditions: Homo sapiens, ES3.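 Note: growth inhibition of ES3 cells, read out with a cell viability assay.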
Assay type: functional, cell-based, Homo sapiens
Description: SANGER: Inhibition of human ES3 cell growth in a cell viability assay.
For `CC(C)CCN1c2nc(Nc3cc(F)c(O)c(F)c3)ncc2N(C)C(=O)C1C` (centres undefined), the IC50 was greater than 5 µM.

Each molecule was assayed on HH (assay: cells). Conditions: Homo sapiens, HH.
Assay type: functional, cell-based, Homo sapiens
Description: SANGER: Inhibition of human HH cell growth in a cell viability assay.
Molecule `CC(C)CCN1c2nc(Nc3cc(F)c(O)c(F)c3)ncc2N(C)C(=O)C1C` (centres undefined) has an IC50 of 2.8 µM.

These molecules were tested on EW-13 (assay: cells). Conditions: Homo sapiens, EW-13.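 Note: growth inhibition of EW-13 cells, read out with a cell viability assay.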
Assay type: functional, cell-based, Homo sapiens
Description: SANGER: Inhibition of human EW-13 cell growth in a cell viability assay.
Work on `CC(C)CCN1c2nc(Nc3cc(F)c(O)c(F)c3)ncc2N(C)C(=O)C1C` (centres undefined) yielded an IC50 greater than 5 µM.

What follows are molecules tested on C2BBe1 (assay: cells). Conditions: Homo sapiens, C2BBe1.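 Note: growth inhibition of C2BBe1 cells, read out through a viability assay.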
Assay type: functional, cell-based, Homo sapiens
Description: SANGER: Inhibition of human C2BBe1 cell growth in a cell viability assay.
`CC(C)CCN1c2nc(Nc3cc(F)c(O)c(F)c3)ncc2N(C)C(=O)C1C` (centres undefined) gave an IC50 greater than 5 µM.

The molecules below were run on DOHH-2 (assay: cells). Conditions: Homo sapiens, DOHH-2.
Assay type: functional, cell-based, Homo sapiens
Description: SANGER: Inhibition of human DOHH-2 cell growth in a cell viability assay.
Work on `CC(C)CCN1c2nc(Nc3cc(F)c(O)c(F)c3)ncc2N(C)C(=O)C1C` (centres undefined) yielded an IC50 greater than 5 µM.

Each molecule was assayed on NCI-H526 (assay: cells). Conditions: Homo sapiens, NCI-H526.
Assay type: functional, cell-based, Homo sapiens
Description: SANGER: Inhibition of human NCI-H526 cell growth in a cell viability assay.
With `CC(C)CCN1c2nc(Nc3cc(F)c(O)c(F)c3)ncc2N(C)C(=O)C1C` (centres undefined) the IC50 was greater than 5 µM.

The molecules below were run on K5 (assay: cells). Conditions: Homo sapiens, K5.
Assay type: functional, cell-based, Homo sapiens
Description: SANGER: Inhibition of human K5 cell growth in a cell viability assay.
For `CC(C)CCN1c2nc(Nc3cc(F)c(O)c(F)c3)ncc2N(C)C(=O)C1C` (centres undefined), the IC50 was greater than 5 µM.

The molecules below were run on NMC-G1 (assay: cells). Conditions: Homo sapiens, NMC-G1.
Assay type: functional, cell-based, Homo sapiens
Description: SANGER: Inhibition of human NMC-G1 cell growth in a cell viability assay.
Molecule `CC(C)CCN1c2nc(Nc3cc(F)c(O)c(F)c3)ncc2N(C)C(=O)C1C` (centres undefined) has an IC50 greater than 5 µM.

What follows are molecules tested on JVM-3 (assay: cells). Conditions: Homo sapiens, JVM-3.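 Note: growth inhibition of human JVM-3 cells, read out with a cell viability assay.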
Assay type: functional, cell-based, Homo sapiens
Description: SANGER: Inhibition of human JVM-3 cell growth in a cell viability assay.
With `CC(C)CCN1c2nc(Nc3cc(F)c(O)c(F)c3)ncc2N(C)C(=O)C1C` (centres undefined) the IC50 was 3.07 µM.

What follows are molecules tested on ATN-1 (assay: cells). Conditions: Homo sapiens, ATN-1.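 Note: growth inhibition of human ATN-1 cells, read out with a cell viability assay.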
Assay type: functional, cell-based, Homo sapiens
Description: SANGER: Inhibition of human ATN-1 cell growth in a cell viability assay.
`CC(C)CCN1c2nc(Nc3cc(F)c(O)c(F)c3)ncc2N(C)C(=O)C1C` (centres undefined) gave an IC50 of 4.42 µM.

What follows are molecules tested on LB2518-MEL (assay: cells). Conditions: Homo sapiens, LB2518-MEL.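 Note: growth inhibition of human LB2518-MEL cells, measured with a cell viability assay.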
Assay type: functional, cell-based, Homo sapiens
Description: SANGER: Inhibition of human LB2518-MEL cell growth in a cell viability assay.
For `CC(C)CCN1c2nc(Nc3cc(F)c(O)c(F)c3)ncc2N(C)C(=O)C1C` (centres undefined), the IC50 was greater than 5 µM.

What follows are molecules tested on CAS-1 (assay: cells). Conditions: Homo sapiens, CAS-1.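 Note: growth inhibition of CAS-1 cells, measured with a cell viability assay.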
Assay type: functional, cell-based, Homo sapiens
Description: SANGER: Inhibition of human CAS-1 cell growth in a cell viability assay.
`CC(C)CCN1c2nc(Nc3cc(F)c(O)c(F)c3)ncc2N(C)C(=O)C1C` (centres undefined) gave an IC50 greater than 5 µM.

The molecules below were run on MS-1 (assay: cells). Conditions: Homo sapiens, MS-1.
Assay type: functional, cell-based, Homo sapiens
Description: SANGER: Inhibition of human MS-1 cell growth in a cell viability assay.
In the case of `CC(C)CCN1c2nc(Nc3cc(F)c(O)c(F)c3)ncc2N(C)C(=O)C1C` (centres undefined), the IC50 is reported as greater than 5 µM.

The molecules below were run on ETK-1 (assay: cells). Conditions: Homo sapiens, ETK-1.
Assay type: functional, cell-based, Homo sapiens
Description: SANGER: Inhibition of human ETK-1 cell growth in a cell viability assay.
For `CC(C)CCN1c2nc(Nc3cc(F)c(O)c(F)c3)ncc2N(C)C(=O)C1C` (centres undefined), the IC50 was 4.36 µM.

Each molecule was assayed on SK-NEP-1 (assay: cells). Conditions: Homo sapiens, SK-NEP-1.
Assay type: functional, cell-based, Homo sapiens
Description: SANGER: Inhibition of human SK-NEP-1 cell growth in a cell viability assay.
`CC(C)CCN1c2nc(Nc3cc(F)c(O)c(F)c3)ncc2N(C)C(=O)C1C` (centres undefined) showed an IC50 of 2.04 µM.

The molecules below were run on EW-3 (assay: cells). Conditions: Homo sapiens, EW-3.
Assay type: functional, cell-based, Homo sapiens
Description: SANGER: Inhibition of human EW-3 cell growth in a cell viability assay.
For `CC(C)CCN1c2nc(Nc3cc(F)c(O)c(F)c3)ncc2N(C)C(=O)C1C` (centres undefined), the IC50 was 0.0358 µM.

Each molecule was assayed on EW-11 (assay: cells). Conditions: Homo sapiens, EW-11.
Assay type: functional, cell-based, Homo sapiens
Description: SANGER: Inhibition of human EW-11 cell growth in a cell viability assay.
With `CC(C)CCN1c2nc(Nc3cc(F)c(O)c(F)c3)ncc2N(C)C(=O)C1C` (centres undefined) the IC50 was 3.41 µM.

These molecules were tested on RPMI-8226 (assay: cells). Conditions: Homo sapiens, RPMI-8226.
Assay type: functional, cell-based, Homo sapiens
Description: SANGER: Inhibition of human RPMI-8226 cell growth in a cell viability assay.
For `CC(C)CCN1c2nc(Nc3cc(F)c(O)c(F)c3)ncc2N(C)C(=O)C1C` (centres undefined), the IC50 was greater than 5 µM.

What follows are molecules tested on RH-1 (assay: cells). Conditions: Homo sapiens, RH-1.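 Note: growth inhibition of human RH-1 cells, read out with a cell viability assay.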
Assay type: functional, cell-based, Homo sapiens
Description: SANGER: Inhibition of human RH-1 cell growth in a cell viability assay.
With `CC(C)CCN1c2nc(Nc3cc(F)c(O)c(F)c3)ncc2N(C)C(=O)C1C` (centres undefined) the IC50 was greater than 5 µM.

The molecules below were run on MFM-223 (assay: cells). Conditions: Homo sapiens, MFM-223.
Assay type: functional, cell-based, Homo sapiens
Description: SANGER: Inhibition of human MFM-223 cell growth in a cell viability assay.
For `CC(C)CCN1c2nc(Nc3cc(F)c(O)c(F)c3)ncc2N(C)C(=O)C1C` (centres undefined), the IC50 was greater than 5 µM.

What follows are molecules tested on DMS-114 (assay: cells). Conditions: Homo sapiens, DMS-114.
Assay type: functional, cell-based, Homo sapiens
Molecule `CC(C)CCN1c2nc(Nc3cc(F)c(O)c(F)c3)ncc2N(C)C(=O)C1C` (centres undefined) has an IC50 of 4.81 µM.

These molecules were tested on IST-SL1 (assay: cells). Conditions: Homo sapiens, IST-SL1.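 Note: growth inhibition of human IST-SL1 cells, read out with a cell viability assay.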
Assay type: functional, cell-based, Homo sapiens
Description: SANGER: Inhibition of human IST-SL1 cell growth in a cell viability assay.
With `CC(C)CCN1c2nc(Nc3cc(F)c(O)c(F)c3)ncc2N(C)C(=O)C1C` (centres undefined) the IC50 was 0.846 µM.

What follows are molecules tested on KGN (assay: cells). Conditions: Homo sapiens, KGN.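 Note: growth inhibition of KGN cells, read out with a cell viability assay.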
Assay type: functional, cell-based, Homo sapiens
Description: SANGER: Inhibition of human KGN cell growth in a cell viability assay.
Work on `CC(C)CCN1c2nc(Nc3cc(F)c(O)c(F)c3)ncc2N(C)C(=O)C1C` (centres undefined) yielded an IC50 greater than 5 µM.

The molecules below were run on LB771-HNC (assay: cells). Conditions: Homo sapiens, LB771-HNC.
Assay type: functional, cell-based, Homo sapiens
Description: SANGER: Inhibition of human LB771-HNC cell growth in a cell viability assay.
With `CC(C)CCN1c2nc(Nc3cc(F)c(O)c(F)c3)ncc2N(C)C(=O)C1C` (centres undefined) the IC50 was greater than 5 µM.

The molecules below were run on HCE-T (assay: cells). Conditions: Homo sapiens, HCE-T.
Assay type: functional, cell-based, Homo sapiens
Description: SANGER: Inhibition of human HCE-T cell growth in a cell viability assay.
`CC(C)CCN1c2nc(Nc3cc(F)c(O)c(F)c3)ncc2N(C)C(=O)C1C` (centres undefined) was tested, and the IC50 was greater than 5 µM.

Each molecule was assayed on KALS-1 (assay: cells). Conditions: Homo sapiens, KALS-1.
Assay type: functional, cell-based, Homo sapiens
Description: SANGER: Inhibition of human KALS-1 cell growth in a cell viability assay.
For `CC(C)CCN1c2nc(Nc3cc(F)c(O)c(F)c3)ncc2N(C)C(=O)C1C` (centres undefined), the IC50 was greater than 5 µM.

These molecules were tested on ALL-PO (assay: cells). Conditions: Homo sapiens, ALL-PO.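 Note: growth inhibition of ALL-PO cells, read out by a cell viability assay.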
Assay type: functional, cell-based, Homo sapiens
Description: SANGER: Inhibition of human ALL-PO cell growth in a cell viability assay.
Work on `CC(C)CCN1c2nc(Nc3cc(F)c(O)c(F)c3)ncc2N(C)C(=O)C1C` (centres undefined) yielded an IC50 greater than 5 µM.

The molecules below were run on P30-OHK (assay: cells). Conditions: Homo sapiens, P30-OHK.
Assay type: functional, cell-based, Homo sapiens
Description: SANGER: Inhibition of human P30-OHK cell growth in a cell viability assay.
`CC(C)CCN1c2nc(Nc3cc(F)c(O)c(F)c3)ncc2N(C)C(=O)C1C` (centres undefined) gave an IC50 greater than 5 µM.

Each molecule was assayed on LB831-BLC (assay: cells). Conditions: Homo sapiens, LB831-BLC.
Assay type: functional, cell-based, Homo sapiens
Description: SANGER: Inhibition of human LB831-BLC cell growth in a cell viability assay.
`CC(C)CCN1c2nc(Nc3cc(F)c(O)c(F)c3)ncc2N(C)C(=O)C1C` (centres undefined) gave an IC50 of 3.54 µM.

These molecules were tested on LS-513 (assay: cells). Conditions: Homo sapiens, LS-513.
Assay type: functional, cell-based, Homo sapiens
Description: SANGER: Inhibition of human LS-513 cell growth in a cell viability assay.
Work on `CC(C)CCN1c2nc(Nc3cc(F)c(O)c(F)c3)ncc2N(C)C(=O)C1C` (centres undefined) yielded an IC50 greater than 5 µM.

What follows are molecules tested on BV-173 (assay: cells). Conditions: Homo sapiens, BV-173.
Assay type: functional, cell-based, Homo sapiens
Description: SANGER: Inhibition of human BV-173 cell growth in a cell viability assay.
`CC(C)CCN1c2nc(Nc3cc(F)c(O)c(F)c3)ncc2N(C)C(=O)C1C` (centres undefined) showed an IC50 of 1.99 µM.

The molecules below were run on NB17 (assay: cells). Conditions: Homo sapiens, NB17.
Assay type: functional, cell-based, Homo sapiens
Description: SANGER: Inhibition of human NB17 cell growth in a cell viability assay.
In the case of `CC(C)CCN1c2nc(Nc3cc(F)c(O)c(F)c3)ncc2N(C)C(=O)C1C` (centres undefined), the IC50 is reported as greater than 5 µM.

What follows are molecules tested on LAMA-84 (assay: cells). Conditions: Homo sapiens, LAMA-84.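 Note: growth inhibition of LAMA-84 cells, read out with a cell viability assay.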
Assay type: functional, cell-based, Homo sapiens
Description: SANGER: Inhibition of human LAMA-84 cell growth in a cell viability assay.
Work on `CC(C)CCN1c2nc(Nc3cc(F)c(O)c(F)c3)ncc2N(C)C(=O)C1C` (centres undefined) yielded an IC50 of 1.13 µM.

What follows are molecules tested on OMC-1 (assay: cells). Conditions: Homo sapiens, OMC-1.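 Note: growth inhibition of the OMC-1 cell line, measured by a cell viability assay.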
Assay type: functional, cell-based, Homo sapiens
Description: SANGER: Inhibition of human OMC-1 cell growth in a cell viability assay.
`CC(C)CCN1c2nc(Nc3cc(F)c(O)c(F)c3)ncc2N(C)C(=O)C1C` (centres undefined) gave an IC50 greater than 5 µM.

These molecules were tested on D-502MG (assay: cells). Conditions: Homo sapiens, D-502MG.
Assay type: functional, cell-based, Homo sapiens
Description: SANGER: Inhibition of human D-502MG cell growth in a cell viability assay.
Work on `CC(C)CCN1c2nc(Nc3cc(F)c(O)c(F)c3)ncc2N(C)C(=O)C1C` (centres undefined) yielded an IC50 of 3.07 µM.

The molecules below were run on EM-2 (assay: cells). Conditions: Homo sapiens, EM-2.
Assay type: functional, cell-based, Homo sapiens
Description: SANGER: Inhibition of human EM-2 cell growth in a cell viability assay.
`CC(C)CCN1c2nc(Nc3cc(F)c(O)c(F)c3)ncc2N(C)C(=O)C1C` (centres undefined) was tested, and the IC50 was 2.92 µM.

The molecules below were run on MV4-11 (assay: cells). Conditions: Homo sapiens, MV4-11.
Assay type: functional, cell-based, Homo sapiens, MV-4-11
Description: SANGER: Inhibition of human MV-4-11 cell growth in a cell viability assay.
`CC(C)CCN1c2nc(Nc3cc(F)c(O)c(F)c3)ncc2N(C)C(=O)C1C` (centres undefined) was tested, and the IC50 was 0.979 µM.

What follows are molecules tested on DEL (assay: cells). Conditions: Homo sapiens, DEL.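 Note: growth inhibition of the human DEL cell line, read out with a cell viability assay.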
Assay type: functional, cell-based, Homo sapiens
Description: SANGER: Inhibition of human DEL cell growth in a cell viability assay.
Molecule `CC(C)CCN1c2nc(Nc3cc(F)c(O)c(F)c3)ncc2N(C)C(=O)C1C` (centres undefined) has an IC50 greater than 5 µM.

The molecules below were run on SK-N-DZ (assay: cells). Conditions: Homo sapiens, SK-N-DZ.
Assay type: functional, cell-based, Homo sapiens
Description: SANGER: Inhibition of human SK-N-DZ cell growth in a cell viability assay.
For `CC(C)CCN1c2nc(Nc3cc(F)c(O)c(F)c3)ncc2N(C)C(=O)C1C` (centres undefined), the IC50 was greater than 5 µM.

The molecules below were run on LS-411N (assay: cells). Conditions: Homo sapiens, LS-411N.
Assay type: functional, cell-based, Homo sapiens
`CC(C)CCN1c2nc(Nc3cc(F)c(O)c(F)c3)ncc2N(C)C(=O)C1C` (centres undefined) gave an IC50 greater than 5 µM.

Each molecule was assayed on HCC 2998 (assay: cells). Conditions: Homo sapiens, HCC 2998.
Assay type: functional, cell-based, Homo sapiens
Description: SANGER: Inhibition of human HCC2998 cell growth in a cell viability assay.
With `CC(C)CCN1c2nc(Nc3cc(F)c(O)c(F)c3)ncc2N(C)C(=O)C1C` (centres undefined) the IC50 was greater than 5 µM.

The molecules below were run on KNS-42 (assay: cells). Conditions: Homo sapiens, KNS-42.
Assay type: functional, cell-based, Homo sapiens
Description: SANGER: Inhibition of human KNS-42 cell growth in a cell viability assay.
`CC(C)CCN1c2nc(Nc3cc(F)c(O)c(F)c3)ncc2N(C)C(=O)C1C` (centres undefined) gave an IC50 greater than 5 µM.

The molecules below were run on JVM-2 (assay: cells). Conditions: Homo sapiens, JVM-2.
Assay type: functional, cell-based, Homo sapiens
Description: SANGER: Inhibition of human JVM-2 cell growth in a cell viability assay.
Molecule `CC(C)CCN1c2nc(Nc3cc(F)c(O)c(F)c3)ncc2N(C)C(=O)C1C` (centres undefined) has an IC50 greater than 5 µM.

Each molecule was assayed on SH-4 (assay: cells). Conditions: Homo sapiens, SH-4.
Assay type: functional, cell-based, Homo sapiens
Description: SANGER: Inhibition of human SH-4 cell growth in a cell viability assay.
For `CC(C)CCN1c2nc(Nc3cc(F)c(O)c(F)c3)ncc2N(C)C(=O)C1C` (centres undefined), the IC50 was greater than 5 µM.

Each molecule was assayed on SNU-C2B (assay: cells). Conditions: Homo sapiens, SNU-C2B.
Assay type: functional, cell-based, Homo sapiens
Description: SANGER: Inhibition of human SNU-C2B cell growth in a cell viability assay.
Molecule `CC(C)CCN1c2nc(Nc3cc(F)c(O)c(F)c3)ncc2N(C)C(=O)C1C` (centres undefined) has an IC50 of 3.39 µM.

The molecules below were run on KARPAS-45 (assay: cells). Conditions: Homo sapiens, KARPAS-45.
Assay type: functional, cell-based, Homo sapiens
Description: SANGER: Inhibition of human KARPAS-45 cell growth in a cell viability assay.
`CC(C)CCN1c2nc(Nc3cc(F)c(O)c(F)c3)ncc2N(C)C(=O)C1C` (centres undefined) was tested, and the IC50 was 0.165 µM.

Each molecule was assayed on NCI-N87 (assay: cells). Conditions: Homo sapiens, NCI-N87.
Assay type: functional, cell-based, Homo sapiens
Description: SANGER: Inhibition of human NCI-N87 cell growth in a cell viability assay.
With `CC(C)CCN1c2nc(Nc3cc(F)c(O)c(F)c3)ncc2N(C)C(=O)C1C` (centres undefined) the IC50 was greater than 5 µM.

The molecules below were run on MN-60 (assay: cells). Conditions: Homo sapiens, MN-60.
Assay type: functional, cell-based, Homo sapiens
Description: SANGER: Inhibition of human MN-60 cell growth in a cell viability assay.
`CC(C)CCN1c2nc(Nc3cc(F)c(O)c(F)c3)ncc2N(C)C(=O)C1C` (centres undefined) gave an IC50 of 2.45 µM.
